Read-outs that look alike come from different tables or passages of the source.
Tests used:
wildtype HIV-1 protease = target: T1, wildtype HIV-1 protease (Human immunodeficiency virus type 1 group M subtype B, UniProt P04585); experiment: Assay for inhibition of microbial expressed HIV protease (Pepcleav); type: biochemical; conditions: wildtype HIV-1 protease expressed in E. coli; peptide substrate; mean of at least two independent experiments
T1 construct: preincubated with the HIV-1 protease (wild type) enzyme in assay buffer; made in house; host or cells: Escherichia coli
Experimental: Assay for Inhibition of Microbial Expressed HIV Protease (“Pepcleav”)
Studies of the inhibition of the wildtype HIV-1 protease (which was expressed in Escherichia coli) were carried out with a peptide substrate [Val-Ser-Gln-Asn-(βnaphtyl)Ala-Pro-Ile-Val]. The inhibitor is first preincubated with the HIV-1 protease (wild type) enzyme in assay buffer (50 mM sodium acetate, pH 5.5, 100 mM NaCl, and 0.1% BSA) for 30 minutes at room temperature. Substrate is added to 400 micromolar in a total volume of 20 microliters containing 20 picomolar HIV-1 protease (final) and the reaction is incubated for 1 hour at 30° C. The reaction is quenched with the addition of formic acid and indinavir to 0.012% and 150 nM final concentrations, respectively. The product formation is determined after separation of product and substrate on a Zorbax Eclipse XDB-C18 column connected to an API 4000 mass spectrometer (Applied Biosystems) with multiple reaction monitoring (transitions were 644.5/428.9 and 615.4/422.2 (M1/M3) for product and indinavir respectively). The extent of inhibition of the reaction is determined from the peak area of the products. Analysis of the products, independently synthesized, provided quantitation standards and confirmation of the product composition.

HIV-1 (H9IIIB strain) = experiment: Cell-based HIV infection assay using a reporter (Cell-Based), MT4-GFP cells; conditions: 50% normal human serum, mean of at least two independent experiments, read-out: Cell-based IP
Outline: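 IC50 from 4-parameter dose-response of % viral growth inhibition, using the 48 h/24 h infected-cell ratio scaled between DMSO and a protease/integrase/NNRTI triple-drug control. Assay used MT4 cells with HIV-LTR-GFP reporter, pre-infected 24 h with HIV-1 H9IIIB, in 50% normal human serum.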

[1] = Human immunodeficiency virus 1, MT4-GFP cells infected with HIV-1 H9IIIB

| Structure (SMILES) | IC50 (wildtype HIV-1 protease) [µM] | IC50 (HIV-1 (H9IIIB strain); [1]) [µM] | IC50 (HIV-1 (H9IIIB strain); MT4-GFP cells infected with HIV-1 H9IIIB) [µM] |
| --- | --- | --- | --- |
| O=C(C[C@@H](c1ccc(F)cc1)c1cc(F)cc(F)c1)Nc1cncc(F)c1CC[C@H]1CNCCN1S(=O)(=O)C1CC1 [Example 303, (3S)-N-(4-{2-[(2S)-1-(cyclopropylsulfonyl)piperazin-2-yl]ethyl}-5-fluoropyridin-3-yl)-3-(3,5-difluorophenyl)-3-(4-fluorophenyl)propanamide] | 0.005 | 0.014 | – |
| COC(=O)N[C@H](C(=O)Nc1cccc(F)c1CC[C@H]1CNCCN1S(=O)(=O)c1ccccc1)C(c1cccc(F)c1)c1cccc(F)c1 [Example 3, Methyl ((S)-1-((3-fluoro-2-(2-((S)-1-(phenylsulfonyl)piperazin-2-yl)ethyl)phenyl)amino)-3,3-bis(3-fluorophenyl)-1-oxopropan-2-yl)carbamate] | 0.00048 | 0.004 | – |
| N[C@H](C(=O)Nc1cncc(F)c1CC[C@H]1CNCCN1S(=O)(=O)c1ccccc1)C(c1ccc(F)cc1)c1ccc(F)cc1 [Example 22, (S)-2-amino-N-(5-fluoro-4-(2-((S)-1-(phenylsulfonyl)piperazin-2-yl)ethyl)pyridin-3-yl)-3,3-bis(4-fluorophenyl)propanamide] | 0.0002 | 0.01 | – |
| CS(=O)(=O)NC1CCN(S(=O)(=O)N2CCNC[C@@H]2CCc2c(F)cncc2NC(=O)C[C@@H](c2ccc(F)cc2)c2cc(F)cc(F)c2)CC1 [Example 334, (3S)-3-(3,5-difluorophenyl)-N-(5-fluoro-4-{2-[(2S)-1-({4-[(methylsulfonyl)amino]piperidin-1-yl}sulfonyl)piperazin-2-yl]ethyl}pyridin-3-yl)-3-(4-fluorophenyl)propanamide] | 0.01 | 0.45 | – |
| CS(=O)(=O)N1CCNC[C@@H]1CCc1c(F)cncc1NC(=O)[C@@H](N)C(c1ccc(F)cc1)c1ccc(F)cc1 [Example 1, 2S-Amino-3,3-di-(4-fluorophenyl)-N-(5-fluoro-4-(2-(1-methylsulfonylpiperazin-2-yl)ethyl)pyridin-3-yl)propanamide] | 0.0097 | 0.067 | – |
| C[C@H]1CNC[C@H](CCc2c(F)cccc2NC(=O)[C@@H](N)[C@@H](c2ccc(F)cc2)c2cc(F)cc(F)c2)N1S(C)(=O)=O [Example 96, (βS)-β-(3,5-difluorophenyl)-4-fluoro-N-(3-fluoro-2-{2-[(2S,6S)-6-methyl-1-(methylsulfonyl)piperazin-2-yl]ethyl}phenyl)-L-phenylalaninamide] | 0.0061 | – | 0.024 |
| CC(=O)NC1CCN(S(=O)(=O)N2CCNC[C@@H]2CCc2c(F)cncc2NC(=O)C[C@@H](c2ccc(F)cc2)c2cc(F)cc(F)c2)CC1 [Example 335, (3S)-N-(4-{2-[(2S)-1-{[4-(acetylamino)piperidin-1-yl]sulfonyl}piperazin-2-yl]ethyl}-5-fluroopyridin-3-yl)-3-(3,5-difluorophenyl)-3-(4-fluorophenyl)propanamide] | 0.024 | 0.65 | – |
| O=C(C[C@@H](c1ccc(F)cc1)c1cc(F)cc(F)c1)Nc1cncc(F)c1CC[C@H]1CNCCN1S(=O)(=O)N1CC[C@@H](NC(=O)C(F)(F)F)C1 [Example 338, (3S)-3-(3,5-difluorophenyl)-3-(4-fluorophenyl)-N-(5-fluoro-4-{2-[(2S)-1-({(3R)-3-[(trifluoroacetyl)amino]pyrrolidin-1-yl}sulfonyl)piperazin-2-yl]ethyl}pyridin-3-yl)propanamide] | 0.13 | 0.66 | – |

Source: patent US9840478B2 (MERCK SHARP & DOHME CORP., priority 2013, dated 2017)
